The numbers were not newly measured in publication PMC9897045 (ACS Omega, 2023), which cites them from elsewhere.

Read-outs that look alike come from different tables or passages of the source.

Series [1] relates to main protease (Mpro, 3CLpro, nsp5). The following applies: read-out: EC50 against main protease (Mpro).

Turning to `Cn1cnc(Cn2c(=O)[nH]/c(=N\c3cc4cn(C)nc4cc3Cl)n(Cc3cc(F)c(F)cc3F)c2=O)n1` [S-217622, (6E)-6-[(6-chloro-2-methyl-2H-indazol-5-yl)imino]-3-[(1-methyl-1H-1,2,4-triazol-3-yl)methyl]-1-(2,4,5-trifluorobenzyl)-1,3,5-triazinane-2,4-dione], the EC50 in the series with SARS-CoV-2 (read-out: EC50 against SARS-CoV-2, range over strains, CPE EC50) is 290 to 500 nM; in the series with SARS-CoV-2 (read-out: EC50 against SARS-CoV-2 Alpha strain, strain QK002), 330 nM; in the series on SARS-CoV-2 (read-out: EC50 against SARS-CoV-2 Beta strain, strain TY8-612), 400 nM; in the series on SARS-CoV-2 (read-out: EC50 against SARS-CoV-2 Delta strain, strain TY11-927-P1), 410 nM; with SARS-CoV-2 (read-out: EC50 against SARS-CoV-2 Gamma strain, strain TY7-501), 500 nM; in the series with SARS-CoV-2 (read-out: EC50 against SARS-CoV-2 Omicron strain, strain TY38-873), 290 nM. Also, the EC50 in series [1] is 13 nM.
